According to paper PMC5147970 (Biochemistry, 2015):
Several values for one entry are separate records, joined by “and”; a condition that tells them apart may be missing. Equal values may be shown once. One block for each molecule: values may come before it.

How the values were obtained:
[1] = molecular target: chymotrypsin-truncated R67 dihydrofolate reductase; assay: AUC
[2] = molecular target: T1, R67 dihydrofolate reductase (R67 DHFR) (Escherichia coli, UniProt P00383); assay: steady-state DHFR inhibition vs DHF; format: biochemical
T1 sequence (P00383 1-78): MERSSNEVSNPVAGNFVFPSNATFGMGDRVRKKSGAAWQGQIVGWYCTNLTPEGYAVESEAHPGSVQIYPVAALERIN

[3] = molecular target: T2, R67 dihydrofolate reductase (K33M) (Escherichia coli, UniProt P00383, K33M); assay: folate reduction kinetics; format: biochemical
T2 sequence (P00383 4-78 K33M): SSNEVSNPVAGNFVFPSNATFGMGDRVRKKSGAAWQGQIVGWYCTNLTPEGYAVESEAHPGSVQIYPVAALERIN

[4] = molecular target: T1, R67 dihydrofolate reductase (R67 DHFR); assay: steady-state DHFR inhibition, Lineweaver–Burk slope replot; format: biochemical
[5] = molecular target: chymotrypsin-truncated R67 dihydrofolate reductase cross-linked to folate with EDC; assay: AUC

stoichiometry N [1]: 4 and 2
Molecule: chymotrypsin-truncated R67 dihydrofolate reductase (enzyme)

Molecule: Nc1nc(=O)c2nc(CNc3ccc(C(=O)N[C@@H](CCC(=O)O)C(=O)O)cc3)cnc2[nH]1 [folate]
Ki [2]: 16 ± 3 µM | folate reduction kinetics (kcat) and EDC cross-linking inactivation [3]: 0.065 ± 0.017 min^–1

Molecule: NCCNC(=O)CC[C@H](NC(=O)c1ccc(NCc2cnc3nc(N)[nH]c(=O)c3n2)cc1)C(=O)NCCN [bis-EDA–folate]
Ki [4]: 140 ± 15 µM

stoichiometry N [5]: 4
Molecule: chymotrypsin-truncated R67 dihydrofolate reductase cross-linked to folate with EDC (enzyme)
